# Results: the METLIN SMRT retention time set (Domingo-Almenara et al. 2019)
# Assay: gradient 5% acetonitrile 3 min, to 50% in 2 min, to 85% in 15 min, held 3 min, 100 µL/min
# Details: column: Zorbax Extend-C18 2.1 x 50 mm; eluents: water / acetonitrile, 0.1% formic acid
# Method in brief: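 Retention time was recorded from adduct peaks, which were picked computationally and each inspected manually. Pure standards ran in mixtures of ~100 molecules on HPLC coupled to a quadrupole time-of-flight mass spectrometer, in positive and negative ionization mode, through a Zorbax Extend-C18 column (2.1 × 50 mm, 1.8 μm) at 100 μL/min. Eluents were water and acetonitrile, each with 0.1% formic acid.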
row,Structure (SMILES),RP-LC retention time [s]
1,O=C(NCCCN1CCCCCC1)C1CCCN(c2nn3c(=O)c4c(nc3s2)CCCC4)C1 (configuration not stated),592
2,CCCCN1C(=O)c2ccccc2C(C(=O)NCc2ccncc2)C12CCCCC2 (configuration not stated),662
3,CCn1cc(C(=O)Nc2ccc(F)c(C)c2)c2cccnc21,896
4,O=S(=O)(c1cc(-c2nnc(C3CCCC3)o2)co1)N1CCCCCC1,1050
5,OC(COc1ccc(Br)cc1Br)CN1CCCC1 (configuration not stated),576
6,CCOCC(=O)N1CCC2(CC1)C(=O)N(C)c1ccccc12,694
7,Cc1cnc(C2CCOCC2)n1C1CCN(C(=O)NC2CCCCC2)CC1,611
8,N#Cc1ccc(Cl)cc1NC(=O)C(=O)NCC1CCCO1 (configuration not stated),759
9,CNC(=O)Nc1cccnc1N1CCCCC1,544
10,CC(C)(C)n1nnnc1C1CC2(CCOCC2)C(=O)N1Cc1ccc(F)cc1F (configuration not stated),809
11,CCOC(=O)c1[nH]c(C)c(CN(Cc2ccco2)C(=O)c2ccc3c(c2)OCO3)c1C,935
12,COc1ccccc1CCC(=O)N1CCN(c2cc(-c3cccs3)[nH]n2)CC1,838
13,Cc1ccc(NC(=O)N2CCCC(CC(=O)N3CCC(Cc4ccccc4)CC3)C2)cc1 (configuration not stated),1120
14,CCOC(=O)CNC(=O)NC1CCN(C2=NS(=O)(=O)C(c3ccc(C)cc3)=C2C)CC1,743
15,CCS(=O)(=O)N1CCCN(C(=O)NC)CC1,566
16,O=C(CN1C(=O)C2CCCCN2c2ccc(C(=O)N3CCCCC3)cc21)N1CCc2ccccc2C1 (configuration not stated),921
17,O=C(c1cc(C2CC2)[nH]n1)N1CCN(c2ccc(N3CCOCC3)nn2)CC1,577
18,Cc1noc(C)c1S(=O)(=O)NCC1CCN(S(=O)(=O)C2CC2)CC1,709
19,CCn1c(C(=O)NC(C)CCc2ccco2)cc2sc(Cl)cc21 (configuration not stated),738
20,Cc1noc(C)c1S(=O)(=O)N1CCCCC1c1nncn1C (configuration not stated),647
21,COCc1noc([C@@H]2CC(F)(F)CN2C(=O)c2cc(C)oc2C)n1,835
22,CC1(C)C(=O)NCCN1C(=O)C1COc2ccccc2O1 (configuration not stated),628
23,CC(C)CN1C(=O)c2cccn2CC1C(=O)NC1CCCCCC1 (configuration not stated),812
24,CCN1CCCn2cc(S(=O)(=O)Nc3ccccc3)cc2C1=O,666
25,CCCS(=O)(=O)N1CCCC(Cn2c(C3CC3)nc3cccnc32)C1 (configuration not stated),658
26,COc1cc(C(c2nnnn2C(C)(C)C)N2CCN(c3ccccn3)CC2)cc(OC)c1OC (configuration not stated),578
27,O=C(Cc1cccs1)N1CCC(Nc2ncnc3c2CCC3)CC1,590

# More lines, now with the values ahead:
row,RP-LC retention time [s],Structure (SMILES)
1,622,c1ccc2sc(SCc3cn4cccnc4n3)nc2c1
2,700,COc1ccc(N2CCN(c3nc4ccc(C)cc4cc3-c3noc(C)n3)CC2)cc1
3,1240,CCc1ccccc1NC(=O)c1cc(C(C)C)n2nccc2n1
4,841,O=c1c2nc(-c3ccccc3)cn2ccn1-c1ccc(Cl)cc1
5,789,O=C(Nc1cc(-c2ccccn2)no1)c1ccccc1Br
6,787,O=S(=O)(Cc1ccccc1)N1CCC(n2c(-c3ccoc3)nc3cccnc32)C1 (configuration not stated)
7,764,COc1ccc(-c2noc(-c3ccc(N4CCN(c5ccccn5)CC4)nc3)n2)cc1
8,620,CN1CCN(CCCNC(=O)c2cc3occc3c(Nc3ccc(Cl)cc3)n2)CC1
9,1230,COC(=O)c1sccc1NC(=O)N1CCc2c([nH]c3ccccc23)C1c1ccc(OC)cc1 (configuration not stated)
10,784,Cc1ccccc1Cn1cc(S(=O)(=O)N2CCOCC2)ccc1=O
11,837,O=C(CSc1ncccn1)Nc1nc(-c2ccccc2)cs1
12,915,Cc1ccc2c(c1)C(C)(C)C(=O)N2CC(=O)NCc1ccc(F)cc1
13,752,O=C(Cc1ccccc1Br)NC1CCN(c2cc(-c3ccc(F)cc3)[nH]n2)C1 (configuration not stated)
14,693,Cc1cc(C)nc(Nc2nc(C(=O)NCCn3nc(-c4ccco4)ccc3=O)cs2)n1
15,679,CCN(CC)C(=O)c1ccc(-c2nc3cc(NS(=O)(=O)c4cccs4)ccc3n2C)cc1
16,1290,COc1ccccc1-c1nc(-c2ccc(S(=O)(=O)N3CCC(C)CC3)cc2)no1
17,560,CN(C)CCNC(=O)c1ccc(-c2ccnc(N3CCCC3)n2)cc1
18,744,COc1ccc(OC)c(Nc2c(-c3ccccn3)nc3cnccn23)c1
19,954,Cc1ccc2c(c1)N(S(C)(=O)=O)CCC(C(=O)NCc1ccc(Cl)cc1)O2 (configuration not stated)
20,687,COc1ccc(NC(=O)Nc2cccc(-c3cn4cccnc4n3)c2)cc1

row,RP-LC retention time [s],Structure (SMILES)
1,1320,CC(C)c1ccc(-n2ncc3c(=O)n(Cc4nc(-c5ccc(Cl)cc5)no4)cnc32)cc1
2,863,Cc1ccccc1Oc1nccn2c(=O)n(CC(=O)Nc3ccccc3Cl)nc12
3,624,CCOc1ccc(NC(=O)Cn2ncc3c(N4CCN(c5ccccn5)CC4)ncnc32)cc1
4,1020,COc1ccccc1N1CCN(c2ncc(S(=O)(=O)c3ccc(C)c(C)c3)c(N)n2)CC1
5,805,CCN1c2ccccc2C(=O)NC12CCN(C(=O)Cc1ccc(OC)cc1)CC2
6,1260,Cn1nccc1C(=O)Nc1ccsc1-c1nc(-c2ccc(F)cc2)no1
7,597,C=CCc1cc(OC)ccc1OCC(O)CN1CCN(c2ccc(OC)cc2)CC1 (configuration not stated)
8,1310,Cc1cccc(-c2noc(-c3ccc(N4CCN(c5ncccn5)CC4)nc3)n2)c1
9,700,COc1ccc(NC(=O)N2CCC3(CC2)NC(=O)c2ccccc2N3C)cc1
10,1210,CC(NC(=O)c1c(O)c2cccnc2n(-c2cccc(F)c2)c1=O)c1ccc(F)cc1 (configuration not stated)
11,856,CC(C)Cc1ccc(S(=O)(=O)N2CCC3(CC2)NCCN=C3NCc2ccccc2)cc1
12,1090,CC(C)n1c(=O)oc2cc(-c3noc(-c4cccc(C#N)c4)n3)ccc21
13,1240,CC(C)CCNS(=O)(=O)c1ccccc1-c1nc(-c2ccccc2)no1
14,845,CCC(=O)Oc1cccc(N2C(=O)c3cccc([N+](=O)[O-])c3C2=O)c1
15,735,CCc1ccccc1N(C)C(=O)Cn1ccc2c(=O)n(C)c(=O)n(C)c21
16,697,Cc1nnc2sc(SCc3ccc([N+](=O)[O-])cc3)nn2c1=O
17,784,COc1ccc(NC(=O)Nc2nccn(-c3ccccc3)c2=O)cc1OC
18,1160,Cc1sc(NC(=O)Cc2csc(-c3ccccc3)n2)nc1-c1ccccc1
19,669,Cc1nnc(N2CCC(C(=O)N3CCOCC3)CC2)c2nn(-c3ccc(Cl)cc3)c(C)c12
20,955,COC(=O)c1ccc(NC(=O)C2CCN(S(=O)(=O)c3c(C)nn(-c4ccccc4)c3C)CC2)cc1
